The values below come from patent publication US6002008A, “Substituted 3-cyano quinolines” (American Cyanamid Company, priority 1998, dated 1999).

Experiment [1] has as its target gastric (H^+ /K^+)-ATPase (Sus scrofa, UniProt P19156). The settings on record: Ife R. J., et al., J. Med. Chem., 35(18), 3413 (1992); cited from earlier work.
Experiment [2] concerns the target recombinant human MEK 1 (MAPKK) and recombinant human ERK2 (MAPK). Nature of the experiment: Mitogen Activated Protein Kinase (MAPK) Assay, coupled MEK/ERK. Type of experiment: biochemical. The following applies: separate entries = evaluated more than once.
Method: To evaluate inhibitors of the MAP (mitogen activated protein) kinase a two component coupled standard pharmacological test procedure, which measures phosphorylation of a serine/threonine residue in an appropriate sequence in the substrate in the presence and absence of a putative inhibitor, was used. Recombinant human MEK 1 (MAPKK) was first used to activate recombinant human ERK2 (MAPK) and the activated MAPK (ERK) was incubated with substrate (MBP peptide or MYC peptide) in the presence of ATP, Mg^+2 and radiolabeled ^33 P ATP. The phosphorylated peptide was captured on a P 81 phosphocellulose filter (paper filter or embedded in microtiter plate) washed and counted by scintillation methods.
The peptide substrates used in the assay are MBP, peptide substrate ([sequence]), or synthetic Myc substrate, ([sequence].cndot.5 TFA. The recombinant enzymes used were prepared as GST fusion proteins of human ERK 2 and human MEK 1. Inhibitor samples were prepared as 10× stocks in 10% DMSO and an appropriate aliquot was used to deliver either 10 ug/ml for a single point screening dose or 100, 10, 1, and 0.1 uM final concentration for a dose response curve. Final DMSO concentrations were less than or equal to 1%.
The reaction was run as follows in 50 mM Tris kinase buffer, pH 7.4 in a reaction volume of 50 ul. The appropriate volume of kinase buffer and inhibitor sample was added to the tube. Appropriate dilution of enzyme was delivered to give 2-5 ug recombinant MAPK (Erk) per tube. The inhibitor was incubated with MAPK (Erk) for min at 0 deg. […] Recombinant Mek (MAPKK) (0.5-2.5 ug) or fully activated Mek (0.05-0.1 units) was added to activate the Erk and incubated for 30 min at 30° C. […] Samples were incubated at 30° C. for 30 minutes and the reaction was stopped by adding 25 μl of ice cold 10% TCA After samples were chilled on ice for 30 min, 20 μl of sample was transferred onto P 81 phosphocellulose filter paper or appropriate MTP with embedded P 81 filter. Filter papers or MTP were washed 2 times with a large volume of 1% acetic acid, then 2 times with water. The filters or MTP were briefly air dried before addition of scintillant and samples were counted in the appropriate scintillation counter set up for reading ^33 P isotope.
The raw data was captured as cpm. Sample replicates were averaged and corrected for background count. Mean cpm data was tabulated by group and % inhibition by a test compound was calculated as (corrected cpm control-corrected. cpm sample/control)×100=% inhibition.
The test system of another experiment is HL60. Nature of the experiment: Inhibition of cancer cell growth as measured by cell number. The following applies: HL60, 48 hours. The class given is cell-based, human.
Experiment [3] has as its target T1, Epidermal Growth Factor Receptor Kinase (His-tagged cytoplasmic domain of EGFR) (Homo sapiens, UniProt P00533).
T1 construct: EGFR cDNA encoding amino acids 645-1186 preceded by Met-Ala-(His)6; made in house; host or cells: Sf9 insect cells, baculovirus vHcEGFR52
Nature of the experiment: Inhibition of Epidermal Growth Factor Receptor Kinase (EGF-R) using recombinant enzyme. Type of experiment: biochemical. The settings on record: average of number of tests, RR-SRC peptide.
Method: Representative compounds of the invention were evaluated for their ability to inhibit the phosphorylation of the tyrosine residue of a peptide substrate catalyzed by the enzyme epidermal growth factor receptor kinase. […] The enzyme used in this assay is the His-tagged cytoplasmic domain of EGFR. A recombinant baculovirus (vHcEGFR52) was constructed containing the EGFR cDNA encoding amino acids 645-1186 preceded by Met-Ala-(His)6. Sf9 cells in 100 mm plates were infected at an moi of 10 pfu/cell and cells were harvested 48 h post infection. A cytoplasmic extract was prepared using 1% Triton X-100 and applied to Ni-NTA column. After washing the column with 20 mM imidazole, HcEGFR was eluted with 250 mM imidazole (in 50 mM NaHPO4, pH 8.0, 300 mM NaCl). […]
Compounds to be evaluated were made into 10 mg/mL stock solutions in 100% dimethylsulfoxide (DMSO). […]
For the enzyme reaction, 10 μL of each inhibitor (at various concentrations) were added to each well of a 96-well plate. […] The filter discs were washed 2× with 0.5% phosphoric acid and radioactivity was measured using a liquid scintillation counter.
The % inhibition of the test compound was determined for at least three different concentrations and the IC50 value was evaluated from the dose response curve. […]

The target in experiment [4] is T2, Kinase insert Domain containing Receptor (KDR; the catalytic domain of the VEGF receptor) (Homo sapiens, UniProt P35968).
T2 construct: KDR; the catalytic domain of the VEGF receptor
Nature of the experiment: Inhibition of Kinase insert Domain containing Receptor (KDR). Type of experiment: biochemical.
Method: In this standard pharmacological test procedure, KDR protein is mixed, in the presence or absence of a inhibitor compound, with a substrate peptide to be phosphorylated (a copolymer of glutamic acid and tyrosine, E:Y::4:1) and other cofacters such as Mg^++ and sodium vanadate (a protein tyrosine phosphatase inhibitor) in an appropriate buffer to maintain pH (7.2). ATP and a radioactive tracer (either P^32 - or P^33 -labeled ATP) is then add to initiate phosphorylation. After incubation, the radioactive phosphate associated with the acid-insoluble fraction of the assay mixture is then qualified as reflection of substrate phosphorylation.

The next experiment deals with SKBR3. Nature of the experiment: Inhibition of cancer cell growth as measured by cell number. The class given is cell-based, human. The following applies: SKBR3, 48 hours, Table 8.
For experiment [5], the system named is human epidermoid tumors (A431). Nature of the experiment: In vivo inhibition of the growth of human epidermoid tumors (A431) in mice. More on the design: species or system human tumor in BALB/c nu/nu female mice.
Method: Representative compounds of this invention (listed below) were evaluated in an in vivo standard pharmacological test procedure which measured its ability to inhibit the growth of human epidermoid tumors. […] BALB/c nu/nu female mice (Charles River, Wilmington, Mass.) were used in this in vivo standard pharmacological test procedure. […] When tumors attained a mass of between 100 and 150 mg, the mice were randomized into treatment groups (day zero). Mice were treated IP once a day either on days 1, 5, and 9 or on days 1 through 10 post staging with doses of either 80, 40 or 20 mg/kg/dose of the compound to be evaluated in 0.2% Klucel. Control animals received no drug. Tumor mass was determined every 7 days [(length X width^2)/2] for 28 days post staging. Relative tumor growth (Mean tumor mass on days 7, 14, 21, and 28 divided by the mean tumor mass on day zero) is determined for each treatment group.
The mark [6] stands for this setting: Table 10, 80 IP days 1, 5, 9, day 7.
The mark [7] stands for this setting: Table 10, 80 IP days 1, 5, 9, day 14.
Setting [8] is: Table 10, 80 IP days 1, 5, 9, day 21.
The mark [9] stands for this setting: Table 10, 80 IP days 1, 5, 9, day 28.
Where [10] appears, read: Table 10, 80 PO days 1-10, day 7.
Where [11] appears, read: Table 10, 80 PO days 1-10, day 14.
The mark [12] stands for this setting: Table 10, 80 PO days 1-10, day 21.
Where [13] appears, read: Table 10, 80 PO days 1-10, day 28.
Where [14] appears, read: Table 11, 80 IP days 1, 5, 9, day 7.
The mark [15] stands for this setting: Table 11, 80 IP days 1, 5, 9, day 14.
Where [16] appears, read: Table 11, 80 IP days 1, 5, 9, day 21.
Where [17] appears, read: Table 11, 80 IP days 1, 5, 9, day 28.
The mark [18] stands for this setting: Table 11, 80 PO days 1-10, day 7.
Where [19] appears, read: Table 11, 80 PO days 1-10, day 14.
The mark [20] stands for this setting: Table 11, 80 PO days 1-10, day 21.
Where [21] appears, read: Table 11, 80 PO days 1-10, day 28.

Where only a bound is given, the exact number is not on record here.

T2 sequence (P35968 834-1162 limits assumed): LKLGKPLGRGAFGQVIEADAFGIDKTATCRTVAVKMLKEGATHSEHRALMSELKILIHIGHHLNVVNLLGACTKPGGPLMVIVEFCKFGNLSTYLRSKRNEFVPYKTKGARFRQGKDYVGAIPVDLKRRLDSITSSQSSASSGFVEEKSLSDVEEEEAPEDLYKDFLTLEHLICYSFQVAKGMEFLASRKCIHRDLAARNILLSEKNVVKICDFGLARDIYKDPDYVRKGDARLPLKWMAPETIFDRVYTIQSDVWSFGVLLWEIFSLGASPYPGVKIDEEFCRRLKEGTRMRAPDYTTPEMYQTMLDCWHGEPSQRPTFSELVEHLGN
T1 sequence (P00533 669-1210): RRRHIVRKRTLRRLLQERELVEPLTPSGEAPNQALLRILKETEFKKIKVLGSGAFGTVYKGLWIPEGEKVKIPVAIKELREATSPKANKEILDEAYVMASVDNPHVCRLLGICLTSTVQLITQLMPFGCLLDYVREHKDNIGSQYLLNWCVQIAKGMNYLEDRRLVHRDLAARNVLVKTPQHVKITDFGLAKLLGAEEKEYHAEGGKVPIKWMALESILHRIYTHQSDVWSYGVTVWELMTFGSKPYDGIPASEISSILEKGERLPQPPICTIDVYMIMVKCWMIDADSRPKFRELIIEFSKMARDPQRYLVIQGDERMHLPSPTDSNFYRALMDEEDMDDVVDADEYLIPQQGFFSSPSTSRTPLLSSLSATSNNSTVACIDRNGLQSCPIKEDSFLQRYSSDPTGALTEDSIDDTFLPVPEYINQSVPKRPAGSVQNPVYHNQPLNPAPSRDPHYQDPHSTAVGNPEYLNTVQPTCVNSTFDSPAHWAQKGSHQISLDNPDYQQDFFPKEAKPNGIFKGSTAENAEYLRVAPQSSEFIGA
Sequence of gastric (H^+ /K^+)-ATPase (P19156 2-1034 limits assumed): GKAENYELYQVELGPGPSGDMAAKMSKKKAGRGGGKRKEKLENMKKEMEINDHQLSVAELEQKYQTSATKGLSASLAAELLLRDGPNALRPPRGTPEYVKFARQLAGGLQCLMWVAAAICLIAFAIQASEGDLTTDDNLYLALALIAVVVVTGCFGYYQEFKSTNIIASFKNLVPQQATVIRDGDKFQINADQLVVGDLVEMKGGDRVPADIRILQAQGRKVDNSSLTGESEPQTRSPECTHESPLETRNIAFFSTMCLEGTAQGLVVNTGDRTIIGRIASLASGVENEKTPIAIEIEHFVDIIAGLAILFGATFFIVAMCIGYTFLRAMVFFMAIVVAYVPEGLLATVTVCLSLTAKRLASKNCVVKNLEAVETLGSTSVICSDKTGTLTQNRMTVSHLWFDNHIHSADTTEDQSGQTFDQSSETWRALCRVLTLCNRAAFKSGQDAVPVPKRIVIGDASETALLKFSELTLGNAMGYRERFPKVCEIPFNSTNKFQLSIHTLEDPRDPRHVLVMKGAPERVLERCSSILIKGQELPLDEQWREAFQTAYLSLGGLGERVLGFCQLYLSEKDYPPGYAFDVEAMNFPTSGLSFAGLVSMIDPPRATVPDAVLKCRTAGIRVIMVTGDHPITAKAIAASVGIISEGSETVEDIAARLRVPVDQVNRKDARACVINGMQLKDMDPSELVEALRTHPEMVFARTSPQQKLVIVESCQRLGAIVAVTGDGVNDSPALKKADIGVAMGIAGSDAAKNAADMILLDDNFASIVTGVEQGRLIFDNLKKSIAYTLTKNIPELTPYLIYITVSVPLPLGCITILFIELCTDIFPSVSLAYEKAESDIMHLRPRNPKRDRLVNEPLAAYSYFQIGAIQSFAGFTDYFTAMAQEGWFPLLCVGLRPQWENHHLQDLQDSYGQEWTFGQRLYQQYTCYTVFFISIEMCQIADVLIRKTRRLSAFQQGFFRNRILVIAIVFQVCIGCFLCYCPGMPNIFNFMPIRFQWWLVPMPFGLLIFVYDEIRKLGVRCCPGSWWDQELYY
Sequence of gastric (H^+ /K^+)-ATPase (P18434 whole entry partner): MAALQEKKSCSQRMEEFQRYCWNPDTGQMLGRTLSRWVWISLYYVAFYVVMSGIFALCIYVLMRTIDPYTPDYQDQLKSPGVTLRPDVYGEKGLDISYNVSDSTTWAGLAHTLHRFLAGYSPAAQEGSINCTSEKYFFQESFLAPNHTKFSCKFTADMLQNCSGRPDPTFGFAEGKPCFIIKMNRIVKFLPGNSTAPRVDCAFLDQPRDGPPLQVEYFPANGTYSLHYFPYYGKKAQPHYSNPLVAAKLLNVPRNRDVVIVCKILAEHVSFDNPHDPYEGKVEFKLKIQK
From the text for HL60: (§1) The cell lines were chosen since they overexpressed epidermal growth factor receptor (EGFR) (i.e. A431) or HER2/neu (SKBR3), or had little to no expression of the these receptors (SW620, LOX, MCF7).
From the text for SKBR3: as §1

As for `Cc1ccccc1Nc1c(C#N)cnc2ccccc12`, the “gastric (H+/K+)-ATPase inhibitory activity” value in experiment [1] was “inhibitory activity at high concentrations”.

On to “4-(3-Bromophenylamino)-6,7-di-methoxymethyl-3-quinolinecarbonitrile [Example 325]”, for which the half-maximal inhibitory concentration (IC50) in experiment [2] is greater than 100 µM.

Regarding `COc1cc2ncc(C#N)c(Nc3cccc(C#N)c3)c2cc1OC` [Example 45, 4-[(3-Cyanophenyl)amino]-6,7-dimethoxy-3-quinolinecarbonitrile], in the experiment with HL60, the “Inhibition of Cancer Cell Growth as Measured by Cell Number (IC50)” value is greater than 1.00 µg/mL.

Regarding `CN(C)CC=CC(=O)Nc1ccc2ncc(C#N)c(Nc3cccc(Br)c3)c2c1` [Example 99, 4-Dimethylamino-but-2-enoic acid [4-(3-bromo-phenylamino)-3-cyano-quinolin-6-yl]-amide], the half-inhibitory concentration (IC50) in experiment [3] stood at 30 nM.

Turning to `CCN(CC)CC=CC(=O)Nc1ccc2ncc(C#N)c(Nc3cccc(Br)c3)c2c1` [Example 100, 4-Diethylamino-but-2-enoic acid [4-(3-bromo-phenylamino)-3-cyano-quinolin-6-yl]-amide], in experiment [3], the 50% inhibitory concentration (IC50) was 100 nM.

As to `C=CC(=O)Nc1cc(CN(C)C)c2ncc(C#N)c(Nc3cccc(Br)c3)c2c1` [Example 111, N-{4-[(3-Bromophenyl)amino]-3-cyano-8-dimethylaminomethyl-6-quinolinyl}-2-propenamide], the IC50 in experiment [2] stood at 100 µM.

Consider `C=CC(=O)Nc1ccc2ncc(C#N)c(Nc3cccc(C#N)c3)c2c1` [Example 160, N-{3-Cyano-4-[(3-cyanophenyl)amino]-6-quinolinyl}-2-propenamide], for which, in experiment [4], the “KDR IC50” value turned out to be 30 µg/mL.

As to `C=C(CN1CCOCC1)C(=O)Nc1ccc2ncc(C#N)c(Nc3cccc(Br)c3)c2c1` [Example 171, N-{4-[(3-Bromophenyl)amino]-3-cyano-6-quinolinyl}-2-morpholin-4-ylmethyl-2-propenamide], in experiment [2], the IC50 was 100 µM.

Take `COc1cc2ncc(C#N)c(Nc3ccc(F)c(Cl)c3)c2cc1NC(=O)C=CCN(C)C` [Example 203, 4-Dimethylamino-but-2-enoic acid [4-(3-chloro-4-fluoro-phenylamino)-3-cyano-7-methoxy-quinolin-6-yl]-amide]: the “Inhibition of Cancer Cell Growth as Measured by Cell Number (IC50)” value in the experiment with SKBR3 worked out at 0.1 µg/mL. In addition, the “% T/C” value in experiment [5] (setting [6]) is 20%; in experiment [5] (setting [7]), 12%; in experiment [5] (setting [8]) it was 14%; in experiment [5] (setting [9]), 16%; in experiment [5] (setting [10]), 15%; in experiment [5] (setting [11]), 8%. The “% T/C” value was determined as 12% in experiment [5] (setting [12]) and 17% in experiment [5] (setting [13]).

Regarding `CCN(CC)CC=CC(=O)Nc1cc2c(Nc3ccc(F)c(Cl)c3)c(C#N)cnc2cc1OC` [Example 204, 4-Diethylamino-but-2-enoic acid [4-(3-chloro-4-fluoro-phenylamino)-3-cyano-7-methoxy-quinolin-6-yl]-amide], the “% T/C” value in experiment [5] (setting [6]) was determined as 45%; in experiment [5] (setting [7]), 42%; in experiment [5] (setting [8]), 55%; in experiment [5] (setting [9]), 49%; in experiment [5] (setting [10]) it was 25%; in experiment [5] (setting [11]) it was 18%. Also, the “% T/C” value is on record as 43% in experiment [5] (setting [12]) and 51% in experiment [5] (setting [13]).

As to `COc1cc2ncc(C#N)c(Nc3ccc(F)c(Cl)c3)c2cc1NC(=O)C=CCN1CCOCC1` [Example 205, 4-Morpholin-4-yl-but-2-enoic acid [4-(3-chloro-4-fluoro-phenylamino)-3-cyano-7-methoxy-quinolin-6-yl]-amide], the “% T/C” value in experiment [5] (setting [6]) turned out to be 30%; in experiment [5] (setting [7]) it was 25%; in experiment [5] (setting [8]), 38%; in experiment [5] (setting [9]), 61%; in experiment [5] (setting [10]) it was 23%; in experiment [5] (setting [11]) it was 19%. Moreover, the “% T/C” value in experiment [5] (setting [12]) stood at 23%; in experiment [5] (setting [13]), 29%.

As to `COc1cc2ncc(C#N)c(Nc3ccc(F)c(Br)c3)c2cc1NC(=O)C=CCN(C)C` [Example 208, 4-Dimethylamino-but-2-enoic acid [4-(3-bromo-4-fluoro-phenylamino)-3-cyano-7-methoxy-quinolin-6-yl]-amide], the “% T/C” value worked out at 14% in experiment [5] (setting [14]); 15% in experiment [5] (setting [15]); 26% in experiment [5] (setting [16]); 32% in experiment [5] (setting [17]); 6% in experiment [5] (setting [18]); 6% in experiment [5] (setting [19]). The results for the “% T/C” value in experiment [5] (setting [20]) and in experiment [5] (setting [21]) were 8% and 10%, respectively.

With `CCN(CC)CC=CC(=O)Nc1cc2c(Nc3ccc(F)c(Br)c3)c(C#N)cnc2cc1OC` [Example 209, 4Diethylamino-but-2-enoic acid [4(3-bromo-4-fluoro-phenylamino)-3-cyano-7-methoxy-quinolin-6-yl]-amide], the “KDR IC50” value in experiment [4] was 30 µg/mL.

In the case of `CCOc1cc2ncc(C#N)c(Nc3cccc(Br)c3)c2cc1NC(=O)C=CCN(C)C` [Example 216, 4-Dimethylamino-but-2-enoic acid [4-(3-bromo-phenylamino)-3-cyano-7-ethoxy-quinolin-6-yl]-amide], in experiment [4], the “KDR IC50” value came to 30 µg/mL. Also, the “% T/C” value is given as 14% in experiment [5] (setting [14]); 12% in experiment [5] (setting [15]); 17% in experiment [5] (setting [16]); 19% in experiment [5] (setting [17]); 6% in experiment [5] (setting [18]); 6% in experiment [5] (setting [19]). Also, the “% T/C” value in experiment [5] (setting [20]) is recorded as 12%; in experiment [5] (setting [21]) it was 21%.

For `CCOc1cc2ncc(C#N)c(Nc3cccc(Br)c3)c2cc1NC(=O)C=CCN(CC)CC` [Example 217, 4-Diethylamino-but-2-enoic acid [4-(3-bromo-phenylamino)-3-cyano-7-ethoxy-quinolin-6-yl]-amide], the “KDR IC50” value in experiment [4] amounted to 30 µg/mL. In addition, the “% T/C” value in experiment [5] (setting [14]) is listed as 25%; in experiment [5] (setting [15]), 36%; in experiment [5] (setting [16]), 51%; in experiment [5] (setting [17]), 56%; in experiment [5] (setting [18]) it was 30%; in experiment [5] (setting [19]) it was 33%. Besides, the “% T/C” value stood at 43% in experiment [5] (setting [20]) and 42% in experiment [5] (setting [21]).

As to `COc1ccc(OC)c2c(Nc3ccc(Cl)cc3F)c(C#N)cnc12` [Example 238, 4-(4-Chloro-2-fluoro-phenylamino)-5.8-dimethoxyquinoline-3-carbonitrile], the half-maximal inhibitory concentration (IC50) in experiment [2] was greater than 100 µM.

`CCOc1cc2[nH]cc(C#N)c(=O)c2cc1OCC` [Example 252, 1,4-Dihydroquinoline-6,7-diethoxy-4-oxo-3-carbonitrile]: in experiment [2], the IC50 amounted to 100 µM.

For the molecule `COc1ccc2ncc(C#N)c(Nc3ccc(Cl)cc3F)c2c1` [Example 283, 4-(4-Chloro-2-fluoro-phenylamino)-6-methoxy-quinoline-3-carbonitrile], the “KDR IC50” value in experiment [4] came to 30 µg/mL.

With `COc1ccc2ncc(C#N)c(Nc3ccc(C)c(O)c3)c2c1` [Example 284, 4-(3-Hydroxy-4-methyl-phenylamino)-6-methoxy-quinoline-3-carbonitrile], the “KDR IC50” value in experiment [4] was 30 µg/mL.

Consider `CCCCOc1cc2ncc(C#N)c(Nc3cccc(Br)c3)c2cc1OCCCC` [Example 305, 4(3-Bromophenylamino)-6,7-di-n-butoxy-3-quinolinecarbonitrile], for which the “KDR IC50” value in experiment [4] came out at 30 µg/mL.

For `COc1ccc2c(Nc3ccc(Cl)cc3F)c(C#N)cnc2c1` [Example 307, 4-(4-Chloro-2-fluorophenylamino)-7-methoxy-3-quinolinecarbonitrile], the “KDR IC50” value in experiment [4] was found to be 30 µg/mL.

Turning to `N#Cc1cnc2cc(O)ccc2c1Nc1ccc(Cl)cc1F` [Example 308, 4-(4-Chloro-2-fluorophenylamino)-7-hydroxy-3-quinolinecarbonitrile], in experiment [4], the “KDR IC50” value came out at 30 µg/mL.

For `COCCOc1cc2ncc(C#N)c(Nc3cccc(Br)c3)c2cc1OCCOC` [Example 311, 4-[(3-Bromophenyl)amino]-6,7-bis(2-methoxyethoxy)-3-quinolinecarbonitrile], the concentration for half-maximal inhibition (IC50) in experiment [2] worked out at 70 µM.

As for `COc1cc2ncc(C#N)c(Nc3cccc(C(C)=O)c3)c2cc1OC` [Example 324, 4(3-acetylphenylamino)-6,7-dimethoxy-3-quinolinecarbonitrile], the half-inhibitory concentration (IC50) in experiment [2] is 100 µM.

As usually defined, the IC50 is the concentration that gives 50% inhibition.
